#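 Cultured in 96-well plates, cells were exposed to test compound for 48 hours across five concentrations. The concentration for 50% growth inhibition is given as GI50. TGI is the concentration that stops growth completely.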
# What was measured:
# Test in all cases: DTP human tumour cell line panel, 48 h
# SF-295 CNS = test system: SF-295 CNS
# HCT-15 colon = test system: HCT-15 colon
# HT29 colon = test system: HT29 colon
# RPMI-8226 leukemia = test system: RPMI-8226 leukemia
# M14 melanoma = test system: M14 melanoma
# HL-60(TB) leukemia = test system: HL-60(TB) leukemia
# SNB-19 CNS = test system: SNB-19 CNS
# SW-620 colon = test system: SW-620 colon
# UO-31 renal = test system: UO-31 renal
# MDA-N = test system: MDA-N
Compound,TGI (SF-295 CNS),TGI (HCT-15 colon),TGI (HT29 colon),TGI (RPMI-8226 leukemia),TGI (M14 melanoma),TGI (HL-60(TB) leukemia),TGI (SNB-19 CNS),TGI (SW-620 colon),TGI (UO-31 renal),GI50 (SF-295 CNS),GI50 (HCT-15 colon),GI50 (HT29 colon),GI50 (M14 melanoma),GI50 (HL-60(TB) leukemia),GI50 (SNB-19 CNS),GI50 (SW-620 colon),GI50 (UO-31 renal),TGI (MDA-N)
COc1ccc(/C=C(\C2=NC(=O)CS2)c2nc3ccccc3[nH]2)cc1,> 100 µM,> 100 µM,> 100 µM,> 100 µM,> 100 µM,> 100 µM,> 100 µM,> 100 µM,> 100 µM,–,–,–,–,–,–,–,–,–
COC1=CC(c2ccc[nH]2)=N/C1=C\c1[nH]c(C)c(C)c1CCC(=O)OCc1ccccc1,0.894 µM,1.18 µM,1.36 µM,–,1 µM,3.46 µM,14 µM,1.62 µM,0.459 µM,0.224 µM,0.305 µM,0.191 µM,0.285 µM,0.799 µM,0.676 µM,0.322 µM,0.209 µM,–
CC(C)(/C=N/O)/[N+]([O-])=C/c1ccccc1,> 100 µM,> 100 µM,> 100 µM,> 100 µM,> 100 µM,–,> 100 µM,> 100 µM,> 100 µM,–,–,–,–,–,–,–,–,> 100 µM
c1ccc(Sc2nc(Sc3ccccc3)nc(Sc3ccccc3)n2)cc1,> 100 µM,> 100 µM,> 100 µM,> 100 µM,> 100 µM,> 100 µM,> 100 µM,–,> 100 µM,–,–,–,–,–,–,–,–,–
COC(=O)C1Cc2c([nH]c3ccccc23)-c2[nH]c3ccccc3c2CC(NC(C)=O)C(=O)N2CCCC2C(=O)N1 (centres undefined),> 100 µM,> 100 µM,> 100 µM,> 100 µM,–,–,> 100 µM,> 100 µM,> 100 µM,–,–,–,–,–,–,–,–,> 100 µM
CCC1OC2C(CC=C(C)C)=C3OC(C)(O)C(C)(CC)C(=O)C3=C3OC(=O)C=C1C32 (centres undefined),> 100 µM,> 100 µM,–,> 100 µM,> 100 µM,–,> 100 µM,> 100 µM,69.6 µM,–,–,–,–,–,–,–,–,–
COc1ccc(OC)c(-c2cc(=O)c3cc4c(cc3[nH]2)OCO4)c1,> 27.6 µM,> 55.5 µM,> 100 µM,> 46.6 µM,> 100 µM,> 26.1 µM,> 100 µM,> 100 µM,> 100 µM,–,–,–,–,–,–,–,–,–
Cc1cc2c(cc1-c1cc3c(cc1C)C(C(C)C)=C(O)C(=O)/C3=C\Nc1ccccn1)/C(=C/Nc1ccccn1)C(=O)C(O)=C2C(C)C,> 100 µM,> 100 µM,–,> 100 µM,> 100 µM,99.2 µM,> 100 µM,> 100 µM,–,–,–,–,–,–,–,–,–,> 100 µM
COc1c(C)c(C/C=C(\C)CCCCO)c(OC)c2ccccc12,> 100 µM,> 100 µM,43.7 µM,> 100 µM,> 100 µM,–,> 100 µM,> 100 µM,> 100 µM,–,–,–,–,–,–,–,–,> 100 µM
O=P(Nc1cccc(Cl)c1)(Oc1ccccc1)N(CCCl)CCCl (centres undefined),28.1 µM,28.7 µM,28.4 µM,–,28.6 µM,> 100 µM,–,30.7 µM,> 100 µM,–,–,–,–,–,–,–,–,–
CN(C)C1(c2cc3ccccc3s2)CCCCC1,> 100 µM,> 100 µM,> 100 µM,–,35.7 µM,0.0658 µM,> 100 µM,> 100 µM,> 100 µM,–,–,–,–,–,–,–,–,> 100 µM

# — PubChem BioAssay (NCI)
